# Key:
# NLRP3 inflammasome = test: PBMC assay: IL-1β in LPS-stimulated human PBMCs (MSD); format: cell-based; settings: human PBMCs, 100 ng/ml LPS for 6 hrs, IL-1β in supernatant via MSD, read-out: IL1β IC50
# Method: The activity of a compound according to the present invention can be assessed by in vitro methods.
# Peripheral venous blood was collected from healthy individuals and human peripheral blood mononuclear cells (PBMCs) were isolated from blood by Ficoll-Histopaque (Sigma-Aldrich, A0561) density gradient centrifugation. After isolation, PBMCs were stored in liquid nitrogen for later use. Upon thawing, PBMC cell viability was determined in growth medium (RPMI media supplemented with 10% fetal bovine serum, 1% Pen-Strep and 1% L-glutamine). […] PBMCs were added at a density of 7.5×10^4 cells per well and incubated for 30 min in a 5% CO2 incubator at 37° C. LPS stimulation was performed by addition of 100 ng/ml LPS (final concentration, Invivogen, tlrl-smlps) for 6 hrs followed by collection of cellular supernatant and the analysis of IL-1β (μM) and TNF cytokines levels (μM) via MSD technology according to manufacturers' guidelines (MSD, K151A0H).
# TNF = test: PBMC assay: TNF cytokine levels in LPS-stimulated human PBMCs (MSD); format: cell-based; settings: 100 ng/ml LPS for 6 hrs, TNF in supernatant via MSD
# Method: Peripheral venous blood was collected from healthy individuals and human peripheral blood mononuclear cells (PBMCs) were isolated from blood by Ficoll-Histopaque (Sigma-Aldrich, A0561) density gradient centrifugation. After isolation, PBMCs were stored in liquid nitrogen for later use. Upon thawing, PBMC cell viability was determined in growth medium (RPMI media supplemented with 10% fetal bovine serum, 1% Pen-Strep and 1% L-glutamine). Compounds were spotted in a 1:3 serial dilution in DMSO and diluted to the final concentration in 30 μl medium in 96 well plates (Falcon, 353072). PBMCs were added at a density of 7.5×10^4 cells per well and incubated for 30 min in a 5% CO2 incubator at 37° C. LPS stimulation was performed by addition of 100 ng/ml LPS (final concentration, Invivogen, tlrl-smlps) for 6 hrs followed by collection of cellular supernatant and the analysis of IL-1β (μM) and TNF cytokines levels (μM) via MSD technology according to manufacturers' guidelines (MSD, K151A0H).
# The IC50 values (for IL-1β) and EC50 values (TNF) were obtained on compounds of the invention/examples, and are depicted in the following table: […]
IC50 (NLRP3 inflammasome),EC50 (TNF),SMILES
> 10000 nM,> 10000 nM,Cc1ccncc1NC(=O)Cn1nc(C(C)C)n2nc(C3CC3)cc2c1=O [Final Cpd 138]
2550 nM,> 10000 nM,CC(C)c1nn(CC(=O)Nc2ccc3cnnn3c2)c(=O)c2cc(C3CC3)nn12 [Final Cpd 128]
2340 nM,> 10000 nM,Cc1nnc2cc(NC(=O)Cn3nc(C(C)C)n4nc(C5CC5)cc4c3=O)ccn12 [Final Cpd 94]
840 nM,> 10000 nM,CC(C)c1nn(CC(=O)Nc2ccc3nnc(C(F)(F)F)n3n2)c(=O)c2cc(C3CC3)nn12 [Final Cpd 168]
610 nM,> 10000 nM,Cc1c(NC(=O)Cn2nc(C(C)C)n3nc(C4CC4)cc3c2=O)ccnc1Cl [Final Cpd 124]
1720 nM,> 10000 nM,CC(C)c1nn(CC(=O)Nc2cncnc2)c(=O)c2cc(C3CC3)nn12 [Final Cpd 115]
70 nM,> 10000 nM,CC(C)c1nn(CC(=O)Nc2ccc3cn[nH]c3c2)c(=O)c2cc(C3CC3)nn12 [Final Cpd 126]
490 nM,> 10000 nM,CC(C)c1nn(CC(=O)Nc2ccc3nc(C#N)cn3c2)c(=O)c2cc(C3CC3)nn12 [Final Cpd 99]
24 nM,7040 nM,CCNc1cc2c(=O)n(CC(=O)Nc3ccc4nncn4c3)nc(C(C)C)n2n1 [Final Cpd 75]
640 nM,> 10000 nM,"CCc1nn(CC(=O)Nc2ccncn2)c(=O)c2cc(C3CC3)nn12 [Final Cpd 10, 2-(2-cyclopropyl-7-ethyl-4-oxo-pyrazolo[1,5-d][1,2,4]triazin-5-yl)-N-pyrimidin-4-yl-acetamide]"
880 nM,> 10000 nM,CC(C)c1nn(CC(=O)Nc2cncc(F)c2)c(=O)c2cc(C3CC3)nn12 [Final Cpd 112]

# The remaining lines, values behind:
SMILES,IC50 (NLRP3 inflammasome),EC50 (TNF)
CC(C)c1cc2c(=O)n(CC(=O)Nc3ccc4nncn4c3)nc(C(C)O)n2n1 (stereo not drawn) [Final Cpd 155],1140 nM,> 10000 nM
"CCc1nn(CC(=O)NC2CC2)c(=O)c2ccnn12 [Final Cpd 76, N-cyclopropyl-2-(7-ethyl-4-oxopyrazolo[1,5-d][1,2,4]triazin-5(4H)-yl)acetamide]",> 10000 nM,> 10000 nM
Cc1nn(CC(=O)N[C@H]2C[C@H](N(C)Cc3ccccc3)C2)c(=O)c2cc(C3CC3)nn12 [Final Cpd 52],2310 nM,> 10000 nM
Cc1nn(CC(=O)NCc2ccc(F)cc2)c(=O)c2cc(C3CC3)nn12 [Final Cpd 47],> 10000 nM,> 10000 nM
"COCCCc1nn(CC(=O)N[C@H]2C[C@@](C)(O)C2)c(=O)c2cc(C3CC3)nn12 [Final Cpd 194, 2-(2-cyclopropyl-7-(3-methoxypropyl)-4-oxopyrazolo[1,5-d][1,2,4]triazin-5(4H)-yl)-N-((ls,3s)-3-hydroxy-3-methylcyclobutyl)acetamide]",> 10000 nM,> 10000 nM
CC(C)c1nn(CC(=O)Nc2ccncn2)c(=O)c2cc(N(C)C)nn12 [Final Cpd 22],1350 nM,> 10000 nM
CC(C)c1nn(CC(=O)Nc2ccncn2)c(=O)c2cc(C(C)(C)C)nn12 [Final Cpd 70],620 nM,> 10000 nM
C[C@]1(O)C[C@@H](NC(=O)Cn2nc(CC3CCC3)n3nc(C4CC4)cc3c2=O)C1 [Final Cpd 198],> 10000 nM,> 10000 nM
Cc1nn(CC(=O)NCc2cccnc2)c(=O)c2cc(C3CC3)nn12 [Final Cpd 49],> 10000 nM,> 10000 nM
"CCOC(=O)C1CC(Cc2cc3c(=O)n(CC(=O)Nc4ccnnc4)nc(C(C)C)n3n2)C1 (stereo not drawn) [Final Cpd 177, ethyl 3-((7-isopropyl-4-oxo-5-(2-oxo-2-(pyridazin-4-ylamino)ethyl)-4,5-dihydropyrazolo[1,5-d][1,2,4]triazin-2-yl)methyl)cyclobutane-1-carboxylate]",2060 nM,
"CC(C)c1nn(CC(=O)N[C@H]2CN(C3CCC3)CC[C@H]2O)c(=O)c2cc(C3CC3)nn12 [Final Cpd 191, N-((3 S,4R)-1-cyclobutyl-4-hydroxypiperidin-3-yl)-2-(2-cyclopropyl-7-isopropyl-4-oxopyrazolo[1,5-d][1,2,4]triazin-5(4H)-yl)acetamide]",,> 10000 nM

# — US20230203044A1, “PYRAZOLO[1,5-D][1,2,4]TRIAZINE-5(4H)-ACETAMIDES AS INHIBITORS OF THE NLRP3 INFLAMMASOME” (JANSSEN PHARMACEUTICA NV, priority 2020, published 2023)
